# Assay results: patent publication US11357778B2, “Antagonist of the fibroblast growth factor receptor 3 (FGFR3) for use in the treatment or the prevention of skeletal disorders linked with abnormal activation of FGFR3” (INSTITUT NATIONAL DE LA SANTE ET DE LE RECHERCHE MEDICALE …, priority 2011, dated 2022)
# System: FGFR3^Y373C, FGFR3^K650E, FGFR3^K650M
# Assay: Constitutive FGFR3 phosphorylation in transfected human chondrocyte lines / HEK cells (immunoprecipitation, immunoblot, immunocytochemistry)
# Type: cell-based
# Description: Human Embryonic Kidney (HEK) cells and human chondrocyte lines (Benoist-Lasselin et al., FEBS Lett, 581: 2593-2598, 2007.) were transfected transiently with FGFR3 human constructs (FGFR^3Y373C, FGFR3^K650M, FGFR3^K650E) (Gibbs, L. and Legeai-Mallet, L. Biochim Biophys Acta, 1773: 502-512, 2007) using Fugene 6 (Roche). A31 (31) or PD173074 (Parke Davies) were added at a concentration of 2 mM overnight. Transfected cells were lysed in RIPA buffer (50 mM Tris-HCl pH 7.6, 150 mM NaCl, 0.5% NP40, 0.25% sodium deoxycholate, supplemented with protease and phosphatase inhibitors).
# Immunoprecipitation were performed by incubating […] rabbit anti-FGFR3 (Sigma)/[…] protein with protein A-agarose (Roche). […] Bound proteins were detected by chemiluminescence (ECL, Amersham). The blots were rehybrididized with an antipan-actin antibody for quantification (Millipore).
# For immunocytochemistry, the inventors used the following primary antibodies: anti-FGFR3 antibodies (1:400 dilution; Sigma) and anti-phosphotyrosine antibodies (1:200 dilution; Cell Signaling) and secondary antibodies Alexa Fluor®488 goat antirabbit and Alexa Fluor®568 goat anti-mouse (1:400 dilution; Molecular Probes). Cells were covered with Faramount Aquaeous Mounting Medium (Dako) and analyzed using an Olympus PD70-IX2-UCB microscope. […]
structure (smiles),measurement,setting,value
COc1cc(OC)cc(-c2cc3cnc(NCc4cn(CC5CCCN(C)C5)nn4)nc3nc2NC(=O)NC(C)(C)C)c1 (centres unmarked) [Compound A31],constitutive FGFR3 receptor phosphorylation (immunoprecipitation and Western blotting),"2 mM overnight, cells expressing FGFR3^Y373C, FGFR3^K650E, FGFR3^K650M",abolished receptor phosphorylation
same,FGFR3 phosphorylation by immunocytochemistry,"transfected cells expressing FGFR3 mutations, data not shown",complete inhibition
